Results from patent US20090155349A1, “METHODS OF TREATING INFLUENZA VIRAL INFECTIONS” (priority 2006, published 2009).

Assays:
[1] = system: influenza virus A/WS/33; assay: microbe, parasite or virus in culture; type: cell-based
[2] = system: MDCK cells; assay: Toxic effects in MDCK cells
[3] = system: C3HA murine fibroblasts; assay: TNF-α-induced apoptosis, Rhodamine 123 fluorescence; conditions: M4N 50 μM, TNF-α 20 ng/ml + cycloheximide 10 μg/ml, 6 hours
Protocol: C3HA murine fibroblasts were incubated with human recombinant TNF-α (20 ng/ml), cycloheximide (CHI) (10 μg/ml), or both, in the absence/presence of NDGA (25 μM) or M4N (50 μM). All compounds were added simultaneously and treatments were for 6 hours. Rhodamine 123 was added during the last half hour and fluorescence measured using a BMG POLARstar galaxy flourimeter.
More specifically, C3HA cells were cultured in Dulbecco's modified Eagles medium supplemented with 10% fetal bovine serum and maintained at 37° C. in 8% carbon dioxide. […] For apoptosis assays, cells were harvested by trypsinization, centrifuged, counted and 1.5×10^4 cells added to each well of a flat bottom 96 well microtiter plate in culture media. Cells were allowed to adhere at least six (6) hours prior to the addition to TNF (20 ng/ml), CHI (10 μg/milliliter), or both, in the absence/presence of nordihydroguaiaretic acid (25 μM) or M4N (50 μM). […] Both were dissolved in culture media. […] Rhodamine 123 is sequestered by energized mitochondria and live healthy cells display strong mitochondrial fluorescence. […] Fluorescence intensity was then determined using a BMG POLARstar galaxy microplate reader with excitation and emission wavelengths set at 492 and 538 nanometers, respectively. All points were performed in triplicate and percentage cell death was calculated from the following formula: […]

COc1ccc(C[C@@H](C)[C@@H](C)Cc2ccc(OC)c(OC)c2)cc1OC [M4N, meso-1,4-bis(3,4-dimethoxyphenyl)-2,3-dimethylbutane] was tested, and the “inhibitory effect on virus titer (log plot)” value ([1]; EM-1421 25 μM, MDCK cells) was “less than 1 log unit”, the inhibition at 25 µM ([1]; MDCK, 0.5 h, read-out: inhibition of A/WS/33 replication in MDCK cells) was about 75% and the “highest concentration that could be used without causing toxic effects” value [2] was 25 µM. The “inhibition of TNF-α-induced apoptosis” value [3] was “strongly inhibits”.
